For experiment [1], the system named is human synovial sarcoma cell line SW982. The experiment in a line: In vivo combinatorial effect of NYZ-1010 and doxorubicin, human T cell transfer model. Conditions: NSG mice. As to the method: The administration was carried out on Day 41 (NYZ-1010) or on Days 40 and 47 (doxorubicin). Tumor growth inhibition (%) and change from baseline (%) were calculated according to the expressions given below.

Experiment [2] has as its system human lung adenocarcinoma cell line NCI-H522. The experiment in a line: In vivo combinatorial effect of NYZ-1010 and pembrolizumab, human T cell transfer model. Particulars: 53 days after tumor inoculation; NSG mice; NYZ-1010 0.01 mg/kg Days 25, 32, 39; pembrolizumab 10 mg/kg Days 28, 32, 35, 39, 42. The protocol:
Tumor growth inhibition (%) was calculated according to the following equation.

For experiment [3] the test system is unchanged. The experiment is described as follows: In vivo combinatorial effect of NYZ-1010 and durvalumab, human T cell transfer model. Particulars: NSG mice.
Experiment [4] deals with human esophageal cancer cell line OE-19. The experiment is described as follows: In vivo combinatorial effect of NYZ-1010 and sacituzumab govitecan-hziy, human T cell transfer model. Particulars: NSG mice. As to the method:
The administration was carried out on Day 7 (NYZ-1010) or on days 6 and 13 (sacituzumab govitecan-hziy). Tumor growth inhibition (%) and change from baseline (%) were calculated according to the expressions given below.

In the case of `COc1cccc2c1C(=O)c1c(O)c3c(c(O)c1C2=O)C[C@@](O)(C(=O)CO)C[C@@H]3O[C@H]1C[C@H](N)[C@H](O)[C@H](C)O1` [doxorubicin], the “TGI (tumor growth inhibition)” value in experiment [1] (55 days after inoculation, NYZ-1010 0.01 mg/kg Day 41, doxorubicin 2.5 mg/kg Days 40 and 47) stood at 25.6%. Further, the “Change from baseline (%)” value in experiment [1] (group average, tumor volume on Day 55 vs Day 40 baseline) is given as 214.1 (n = 5) %.
Consider pembrolizumab: anti-PD-1 antibody, for which the “TGI (tumor growth inhibition)” value in experiment [2] is on record as 3.1%.
As for durvalumab: anti-PD-L1 antibody, the “TGI (tumor growth inhibition)” value in experiment [3] (49 days after inoculation, NYZ-1010 0.02 mg/kg Days 25 and 32, durvalumab 10 mg/kg intraperitoneally Days 28, 32, 35, 39) was −0.8%. Further, the “Change from baseline (%)” value in experiment [3] (group average, tumor volume on Day 49 vs Day 24 baseline) was 204.7 (n = 5) %.
With sacituzumab govitecan-hziy, in experiment [4] (21 days after inoculation, NYZ-1010 0.01 mg/kg Day 7, sacituzumab govitecan-hziy 25 mg/kg days 6 and 13), the “TGI (tumor growth inhibition)” value is given as 35.4%. Besides, the “Change from baseline (%)” value in experiment [4] (group average, tumor volume on Day 21 vs Day 6 baseline) was 1027.8 (n = 5) %.

(Values after patent publication US20250195645A1, “COMBINATION OF MULTISPECIFIC MOLECULE AND IMMUNE CHECKPOINT INHIBITOR” (DAIICHI SANKYO COMPANY, LIMITED, priority 2022, published 2025).)
